Assay results: patent US20260297070A1, “CYCLIC [COMPOUND LEFT OUT] WRN INHIBITORS” (Nimbus Wadjet, Inc., priority 2023, published 2026)

Each compound was assayed against T1, human Werner helicase (WRN-BV08, Uniprot Q14191, amino acids 517-1235 with L1074F point mutation) (Homo sapiens, UniProt Q14191, L1074F) (assay: WRN (BV08) ADP-Glo Assay). Settings: 0.15 nM WRN, 5 μM ATP, 0.1 nM DNA duplex, 15 min preincubation, 60 min at 25° C., pH 7.5, 1% DMSO; read-out: ADP-Glo_hWRN_IC50.
T1 construct: Uniprot Q14191, amino acids 517-1235 with L1074F point mutation; TEV-cleavable 8×His (C, cleaved yes); made in house; host or cells: Sf9 insect cells (baculovirus)
T1 sequence (Q14191 with tags, fused parts or gaps L1074F limits assumed): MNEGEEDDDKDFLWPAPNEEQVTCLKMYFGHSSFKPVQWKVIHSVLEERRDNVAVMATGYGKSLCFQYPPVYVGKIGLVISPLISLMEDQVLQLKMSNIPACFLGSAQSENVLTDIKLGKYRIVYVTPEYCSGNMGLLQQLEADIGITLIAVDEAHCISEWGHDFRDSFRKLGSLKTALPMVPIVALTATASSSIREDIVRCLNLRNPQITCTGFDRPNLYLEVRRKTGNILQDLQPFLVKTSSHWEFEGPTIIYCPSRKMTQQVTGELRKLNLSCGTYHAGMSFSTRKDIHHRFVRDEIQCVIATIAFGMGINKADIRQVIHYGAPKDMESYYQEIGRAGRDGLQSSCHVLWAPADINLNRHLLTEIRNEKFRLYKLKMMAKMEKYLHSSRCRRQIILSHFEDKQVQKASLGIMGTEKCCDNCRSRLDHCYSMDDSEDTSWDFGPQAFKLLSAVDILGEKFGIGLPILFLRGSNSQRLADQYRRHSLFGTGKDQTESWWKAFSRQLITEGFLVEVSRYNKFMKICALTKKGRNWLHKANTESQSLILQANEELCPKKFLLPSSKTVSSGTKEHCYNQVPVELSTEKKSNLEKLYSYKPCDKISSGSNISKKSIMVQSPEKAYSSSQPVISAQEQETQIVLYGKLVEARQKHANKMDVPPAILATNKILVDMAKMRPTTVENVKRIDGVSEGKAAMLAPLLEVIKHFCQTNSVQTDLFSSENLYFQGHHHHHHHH
Type: biochemical
Summary of the method: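 0.15 nM WRN (aa 517-1235, L1074F, Sf9-expressed, tag cleaved) preincubated 15 min at 25 °C with compound, then 5 μM ATP and 0.1 nM DNA duplex added for 60 min. Buffer: 20 mM Bicine pH 7.5, 1 mM MgCl2, 10 mM KCl, 1 mM TCEP; 1% DMSO. ADP-Glo luminescence; IC50 by 4-parameter fit.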

Row | IC50 | Compound
1 | > 50 µM | O=C(C1CC(c2ccccc2)O1)N(Cc1ccncc1)C1C=CS(=O)(=O)C1 (centres unmarked) [I-647, N-(1,1-dioxo-2,3-dihydro-1lambda6-thiophen-3-yl)-4-phenyl-N-[(pyridin-4-yl)methyl]oxetane-2-carboxamide]
2 | > 50 µM | O=C(Cc1ccc2c(c1)CCOC2)N(Cc1ccncc1)C1C=CS(=O)(=O)C1 (centres unmarked) [I-630, 2-(3,4-dihydro-1H-2-benzopyran-6-yl)-N-(1,1-dioxo-2,3-dihydro-1lambda6-thiophen-3-yl)-N-[(pyridin-4-yl)methyl]acetamide]
3 | 5 to 10 µM | Cc1cc(-c2ccc(F)cc2)ccc1CC(=O)N(Cc1ccncc1)C1C=CS(=O)(=O)C1 (centres unmarked) [I-227, N-(1,1-dioxo-2,3-dihydro-1lambda6-thiophen-3-yl)-2-{4′-fluoro-3-methyl-[1,1′-biphenyl]-4-yl}-N-[(pyridin-4-yl)methyl]acetamide]
4 | 0.5 to 5 µM | O=C(Cn1cc(-c2ccccc2)cn1)N(Cc1ccncc1)C1C=CS(=O)(=O)C1 (centres unmarked) [I-186, N-(1,1-dioxo-2,3-dihydro-1lambda6-thiophen-3-yl)-2-(4-phenyl-1H-pyrazol-1-yl)-N-[(pyridin-4-yl)methyl]acetamide]
5 | > 50 µM | O=C(Cc1cccc(-n2cccc2)c1)N(Cc1ccncc1)C1C=CS(=O)(=O)C1 (centres unmarked) [I-528, N-(1,1-dioxo-2,3-dihydro-1lambda6-thiophen-3-yl)-N-[(pyridin-4-yl)methyl]-2-[3-(1H-pyrrol-1-yl)phenyl]acetamide]
6 | > 50 µM | O=C(C1CC(C(F)(F)F)CO1)N(Cc1ccncc1)C1C=CS(=O)(=O)C1 (centres unmarked) [I-651, N-(1,1-dioxo-2,3-dihydro-1lambda6-thiophen-3-yl)-N-[(pyridin-4-yl)methyl]-4-(trifluoromethyl)oxolane-2-carboxamide]
7 | 5 to 10 µM | O=C(Cc1ccc2cc(Br)ccc2c1)N(Cc1ccncc1)C1C=CS(=O)(=O)C1 (centres unmarked) [I-220, 2-(6-bromonaphthalen-2-yl)-N-(1,1-dioxo-2,3-dihydro-1lambda6-thiophen-3-yl)-N-[(pyridin-4-yl)methyl]acetamide]
8 | > 50 µM | COc1cc(CC(=O)N(Cc2ccncc2)C2C=CS(=O)(=O)C2)cc(OC)c1Br (centres unmarked) [I-631, 2-(4-bromo-3,5-dimethoxyphenyl)-N-(1,1-dioxo-2,3-dihydro-1lambda6-thiophen-3-yl)-N-[(pyridin-4-yl)methyl]acetamide]
9 | > 50 µM | O=C(Cn1ncc2ccccc21)N(Cc1ccncc1)C1C=CS(=O)(=O)C1 (centres unmarked) [I-454, N-(1,1-dioxo-2,3-dihydro-1lambda6-thiophen-3-yl)-2-(1H-indazol-1-yl)-N-[(pyridin-4-yl)methyl]acetamide]
10 | > 50 µM | O=C(C1CCc2cc(Cl)ccc2O1)N(Cc1ccncc1)C1C=CS(=O)(=O)C1 (centres unmarked) [I-653, 6-chloro-N-(1,1-dioxo-2,3-dihydro-1lambda6-thiophen-3-yl)-N-[(pyridin-4-yl)methyl]-3,4-dihydro-2H-1-benzopyran-2-carboxamide]
11 | 0.5 to 5 µM | O=C(Cc1ccc(C2CCC2)cc1)N(Cc1ccncc1)C1C=CS(=O)(=O)C1 (centres unmarked) [I-177, 2-(4-cyclobutylphenyl)-N-(1,1-dioxo-2,3-dihydro-1lambda6-thiophen-3-yl)-N-[(pyridin-4-yl)methyl]acetamide]
12 | 10 to 50 µM | N#Cc1cc(F)ccc1-c1ccc(CC(=O)N(Cc2ccncc2)C2C=CS(=O)(=O)C2)cc1 (centres unmarked) [I-348, 2-{2′-cyano-4′-fluoro-[1,1′-biphenyl]-4-yl}-N-(1,1-dioxo-2,3-dihydro-1lambda6-thiophen-3-yl)-N-[(pyridin-4-yl)methyl]acetamide]
13 | 0.5 to 5 µM | CC(C)c1ccc(CC(=O)N(Cc2ccncc2)C2C=CS(=O)(=O)C2)c(F)c1 (centres unmarked) [I-151, N-(1,1-dioxo-2,3-dihydro-1lambda6-thiophen-3-yl)-2-[2-fluoro-4-(propan-2-yl)phenyl]-N-[(pyridin-4-yl)methyl]acetamide]
14 | 5 to 10 µM | O=C(Cc1ccc(C(F)(F)F)cc1F)N(Cc1ccncc1)C1C=CS(=O)(=O)C1 (centres unmarked) [I-260, N-(1,1-dioxo-2,3-dihydro-1lambda6-thiophen-3-yl)-2-[2-fluoro-4-(trifluoromethyl)phenyl]-N-[(pyridin-4-yl)methyl]acetamide]

Further lines, the compound ahead of its results:

Row | Compound | IC50
15 | CC(C)(O)c1cc(CN(C(=O)Cc2cc(-c3ccc(F)c(F)c3)n[nH]2)C2C=CS(=O)(=O)C2)ccn1 (single isomer, unassigned) [I-781] | 10 to 50 µM
16 | COc1cc(CN(C(=O)C(OCCC#N)c2ccc(-c3ccc(F)c(F)c3)cc2F)[C@@H]2C=CS(=O)(=O)C2)ccn1 (single isomer, unassigned) [I-736, (2R*)-2-(2-cyanoethoxy)-N-[(3R)-1,1-dioxo-2,3-dihydro-1lambda6-thiophen-3-yl]-N-[(2-methoxypyridin-4-yl)methyl]-2-{3,3′,4′-trifluoro-[1,1′-biphenyl]-4-yl}acetamide] | > 50 µM
17 | COc1cc(CN(C(=O)Cc2ncc(-c3ccc(F)c(F)c3)cn2)C2C=CS(=O)(=O)C2)ccn1 (centres unmarked) [I-198, 2-[5-(3,4-difluorophenyl)pyrimidin-2-yl]-N-(1,1-dioxo-2,3-dihydro-1lambda6-thiophen-3-yl)-N-[(2-methoxypyridin-4-yl)methyl]acetamide] | 0.5 to 5 µM
18 | COc1cc(CN(C(=O)C(c2ccc(-c3ccc(F)c(F)c3)cc2F)n2nccc2C)[C@@H]2C=CS(=O)(=O)C2)ccn1 (single isomer, unassigned) [I-738, (2R*)-N-[(3R)-1,1-dioxo-2,3-dihydro-1lambda6-thiophen-3-yl]-N-[(2-methoxypyridin-4-yl)methyl]-2-(5-methyl-1H-pyrazol-1-yl)-2-{3,3′,4′-trifluoro-[1,1′-biphenyl]-4-yl}acetamide] | > 50 µM
19 | COc1cc(CN(C(=O)C(OCCS(C)(=O)=O)c2ccc(-c3ccc(F)c(F)c3)cc2F)[C@@H]2C=CS(=O)(=O)C2)ccn1 (single isomer, unassigned) [I-702, (2R*)-N-[(3R)-1,1-dioxo-2,3-dihydro-1lambda6-thiophen-3-yl]-2-(2-methanesulfonylethoxy)-N-[(2-methoxypyridin-4-yl)methyl]-2-{3,3′,4′-trifluoro-[1,1′-biphenyl]-4-yl}acetamide] | 0.5 to 5 µM
20 | COc1cc(CN(C(=O)C(OCCC#N)c2ccc(-c3ccc(F)c(F)c3)cc2F)[C@@H]2C=CS(=O)(=O)C2)ccn1 (stereo partly drawn) [I-744, 2-(2-cyanoethoxy)-N-[(3R)-1,1-dioxo-2,3-dihydro-1lambda6-thiophen-3-yl]-N-[(2-methoxypyridin-4-yl)methyl]-2-{3,3′,4′-trifluoro-[1,1′-biphenyl]-4-yl}acetamide] | 0.5 to 5 µM
21 | COc1cccc(CN(C(=O)Cc2ccc(-n3cccc3)cc2)C2C=CS(=O)(=O)C2)c1 (centres unmarked) [I-234, N-(1,1-dioxo-2,3-dihydro-1lambda6-thiophen-3-yl)-N-[(3-methoxyphenyl)methyl]-2-[4-(1H-pyrrol-1-yl)phenyl]acetamide] | 5 to 10 µM
22 | O=C(Cn1cc(-c2cc(F)c(F)c(F)c2)cn1)N(Cc1ccc(OCc2ccncc2)cc1)C1C=CS(=O)(=O)C1 (centres unmarked) [I-783, N-(1,1-dioxo-2,3-dihydro-1lambda6-thiophen-3-yl)-N-({4-[(pyridin-4-yl)methoxy]phenyl}methyl)-2-[4-(3,4,5-trifluorophenyl)-1H-pyrazol-1-yl]acetamide] | < 0.5 µM
23 | CN(C)C(=O)C(C(=O)N(Cc1ccnc(C(C)(C)O)c1)C1C=CS(=O)(=O)C1)c1ccc(-c2ccc(F)cc2)cc1 (single isomer, unassigned) [I-8, N1-(-1,1-dioxido-2,3-dihydrothiophen-3-yl)-2-(4′-fluoro-[1,1′-biphenyl]-4-yl)-N1-((2-(2-hydroxypropan-2-yl)pyridin-4-yl)methyl)-N3,N3-dimethylmalonamide] | < 0.5 µM
24 | CC(C)(O)c1cc(CN(C(=O)Cn2ccc(-c3ccc(F)cc3)cc2=O)C2C=CS(=O)(=O)C2)ccn1 (single isomer, unassigned) [I-606] | < 0.5 µM
25 | O=C(C(c1ccc(-c2ccc(F)cc2)cc1)N1CCCC1=O)N(Cc1ccncc1)C1C=CS(=O)(=O)C1 (centres unmarked) [I-328, N-(1,1-dioxo-2,3-dihydro-1lambda6-thiophen-3-yl)-2-{4′-fluoro-[1,1′-biphenyl]-4-yl}-2-(2-oxopyrrolidin-1-yl)-N-[(pyridin-4-yl)methyl]acetamide] | 10 to 50 µM
26 | COc1cc(CN(C(=O)C(OCCS(C)(=O)=O)c2ccc(-c3ccc(F)c(F)c3)cc2F)[C@@H]2C=CS(=O)(=O)C2)ccn1 (stereo partly drawn) [I-707, N-[(3R)-1,1-dioxo-2,3-dihydro-1lambda6-thiophen-3-yl]-2-(2-methanesulfonylethoxy)-N-[(2-methoxypyridin-4-yl)methyl]-2-{3,3′,4′-trifluoro-[1,1′-biphenyl]-4-yl}acetamide] | 0.5 to 5 µM
27 | O=C(C(C(=O)N(Cc1ccncc1)C1C=CS(=O)(=O)C1)c1ccc(-c2ccc(F)cc2)cc1)N1CCOCC1 (centres unmarked) [I-218, N-(1,1-dioxo-2,3-dihydro-1lambda6-thiophen-3-yl)-2-{4′-fluoro-[1,1′-biphenyl]-4-yl}-3-(morpholin-4-yl)-3-oxo-N-[(pyridin-4-yl)methyl]propanamide] | 5 to 10 µM
28 | CC1=CC(N(Cc2ccccc2)C(=O)Cc2ccc(-n3cccc3)cc2)CS1(=O)=O (centres unmarked) [I-566, 2-(4-(1H-pyrrol-1-yl)phenyl)-N-benzyl-N-(5-methyl-1,1-dioxido-2,3-dihydrothiophen-3-yl)acetamide] | > 50 µM

Same assay, conditions: ADP-Glo_hWRN_IC50, 0.15 nM WRN, 5 μM ATP, 0.1 nM DNA duplex, 15 min preincubation, 60 min at 25° C., pH 7.5, 1% DMSO

Row | IC50 | Compound
29 | > 50 µM | O=C(c1cc(-c2ccc(F)cc2)ns1)N(Cc1ccncc1)C1C=CS(=O)(=O)C1 (centres unmarked) [I-615, N-(1,1-dioxo-2,3-dihydro-1lambda6-thiophen-3-yl)-3-(4-fluorophenyl)-N-[(pyridin-4-yl)methyl]-1,2-thiazole-5-carboxamide]
